Assay results from publication PMC3747596 (PLoS ONE, 2013).
Like-named read-outs stand apart in the source and are kept apart here.

Legend:
5-HT6 = 5-HT6 (Homo sapiens, UniProt P50406); test: Radioligand displacement, 5-HT6; assay type: binding
D4 = molecular target: T1, D4 (Homo sapiens, UniProt P21917); test: Radioligand displacement, D4; assay type: binding
T1 sequence (P21917 1-419): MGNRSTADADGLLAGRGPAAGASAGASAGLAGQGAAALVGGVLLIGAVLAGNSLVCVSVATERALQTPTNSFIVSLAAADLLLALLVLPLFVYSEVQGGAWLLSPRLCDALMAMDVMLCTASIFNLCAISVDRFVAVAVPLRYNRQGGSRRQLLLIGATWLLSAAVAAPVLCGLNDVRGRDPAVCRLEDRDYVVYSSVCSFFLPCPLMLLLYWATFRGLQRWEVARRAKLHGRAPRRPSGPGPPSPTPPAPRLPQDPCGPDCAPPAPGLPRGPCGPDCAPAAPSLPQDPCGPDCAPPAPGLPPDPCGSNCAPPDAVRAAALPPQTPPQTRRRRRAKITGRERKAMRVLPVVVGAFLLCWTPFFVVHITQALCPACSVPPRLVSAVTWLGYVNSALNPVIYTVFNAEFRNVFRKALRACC

M3 = M3 (Homo sapiens, UniProt P20309); test: Radioligand displacement, M3; assay type: binding
Chain of M3 (P20309 whole entry): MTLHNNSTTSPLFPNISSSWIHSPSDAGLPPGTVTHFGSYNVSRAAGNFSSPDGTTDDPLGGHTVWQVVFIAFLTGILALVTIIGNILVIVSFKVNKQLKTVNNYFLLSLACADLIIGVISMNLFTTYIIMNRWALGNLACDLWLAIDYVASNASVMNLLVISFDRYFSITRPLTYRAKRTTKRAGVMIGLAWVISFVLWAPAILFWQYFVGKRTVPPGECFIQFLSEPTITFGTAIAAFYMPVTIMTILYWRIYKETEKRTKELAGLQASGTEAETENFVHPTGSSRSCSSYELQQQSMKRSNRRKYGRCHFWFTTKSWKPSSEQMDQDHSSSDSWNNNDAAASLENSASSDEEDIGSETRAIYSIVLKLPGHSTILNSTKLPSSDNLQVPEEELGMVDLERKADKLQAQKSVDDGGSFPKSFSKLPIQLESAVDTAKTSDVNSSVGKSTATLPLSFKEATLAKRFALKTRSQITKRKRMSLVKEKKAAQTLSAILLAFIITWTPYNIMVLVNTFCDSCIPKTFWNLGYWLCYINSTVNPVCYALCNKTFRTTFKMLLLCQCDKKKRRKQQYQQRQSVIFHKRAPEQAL

5-HT5a = 5-HT5a (Homo sapiens, UniProt P47898); test: Radioligand displacement, 5-HT5a; assay type: binding
Chain of 5-HT5a (P47898 whole entry): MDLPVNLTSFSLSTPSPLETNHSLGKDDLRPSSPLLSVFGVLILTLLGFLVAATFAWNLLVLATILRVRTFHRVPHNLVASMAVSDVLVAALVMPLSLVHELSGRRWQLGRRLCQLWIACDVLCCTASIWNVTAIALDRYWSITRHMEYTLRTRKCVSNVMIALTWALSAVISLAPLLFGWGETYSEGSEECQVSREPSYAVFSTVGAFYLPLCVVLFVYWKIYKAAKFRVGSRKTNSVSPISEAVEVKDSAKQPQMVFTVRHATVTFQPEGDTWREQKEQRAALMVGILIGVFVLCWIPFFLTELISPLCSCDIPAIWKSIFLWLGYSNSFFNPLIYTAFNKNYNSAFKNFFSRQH

[1] = tested on: glucocorticoid receptor NR3C1; set-up: method as in PMID 10875228; details: at 10 µM; cited from earlier work
[2] = tested on: human permeability glycoprotein (P-gp); details: cited from earlier work
5-HT2a = 5-HT2a (Homo sapiens, UniProt P28223); test: Radioligand displacement, 5-HT2a; assay type: binding
Chain of 5-HT2a (P28223 whole entry): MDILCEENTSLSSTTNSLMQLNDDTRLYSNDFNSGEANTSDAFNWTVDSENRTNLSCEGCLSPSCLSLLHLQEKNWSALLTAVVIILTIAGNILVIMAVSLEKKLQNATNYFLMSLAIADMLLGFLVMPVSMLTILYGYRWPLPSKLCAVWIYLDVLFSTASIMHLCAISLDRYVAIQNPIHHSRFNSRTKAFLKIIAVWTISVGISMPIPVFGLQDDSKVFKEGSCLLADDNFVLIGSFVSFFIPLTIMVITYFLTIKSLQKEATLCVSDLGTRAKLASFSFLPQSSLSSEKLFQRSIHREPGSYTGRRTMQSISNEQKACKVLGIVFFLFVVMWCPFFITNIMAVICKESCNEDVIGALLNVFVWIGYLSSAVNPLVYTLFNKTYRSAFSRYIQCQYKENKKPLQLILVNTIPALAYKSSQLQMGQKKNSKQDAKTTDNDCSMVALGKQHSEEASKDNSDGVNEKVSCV

[3] = molecular target: M1 muscarinic receptors (M1-R) (Homo sapiens, UniProt P11229); test: Radioligand displacement, M1; assay type: binding
Chain of M1 muscarinic receptors (M1-R) (P11229 whole entry): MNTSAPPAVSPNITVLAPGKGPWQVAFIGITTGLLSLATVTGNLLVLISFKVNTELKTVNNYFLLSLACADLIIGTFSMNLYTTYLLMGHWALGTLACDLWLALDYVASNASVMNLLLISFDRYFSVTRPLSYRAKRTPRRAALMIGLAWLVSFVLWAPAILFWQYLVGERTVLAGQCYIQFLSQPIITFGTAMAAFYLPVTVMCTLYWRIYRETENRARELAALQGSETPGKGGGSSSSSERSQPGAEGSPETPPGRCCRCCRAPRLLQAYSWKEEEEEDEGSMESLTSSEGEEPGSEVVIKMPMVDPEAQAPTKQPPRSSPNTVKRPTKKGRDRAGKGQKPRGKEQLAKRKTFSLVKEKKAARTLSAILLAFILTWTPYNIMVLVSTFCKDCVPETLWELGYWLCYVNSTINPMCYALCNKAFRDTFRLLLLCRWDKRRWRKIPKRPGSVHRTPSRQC

H4 = H4 (Homo sapiens, UniProt Q9H3N8); test: Radioligand displacement, H4; assay type: binding
Chain of H4 (Q9H3N8 whole entry): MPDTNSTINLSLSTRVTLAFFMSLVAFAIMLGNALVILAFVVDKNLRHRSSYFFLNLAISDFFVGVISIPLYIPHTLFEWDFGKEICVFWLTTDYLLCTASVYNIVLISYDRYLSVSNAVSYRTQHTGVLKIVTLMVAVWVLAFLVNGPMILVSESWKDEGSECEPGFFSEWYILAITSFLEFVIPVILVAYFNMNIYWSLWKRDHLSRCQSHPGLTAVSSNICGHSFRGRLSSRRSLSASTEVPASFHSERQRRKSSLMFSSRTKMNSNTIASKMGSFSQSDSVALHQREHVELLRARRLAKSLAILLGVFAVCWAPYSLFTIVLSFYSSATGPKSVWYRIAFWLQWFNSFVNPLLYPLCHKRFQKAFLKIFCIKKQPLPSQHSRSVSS

5-HT2c = molecular target: T2, 5-HT2c (Homo sapiens, UniProt P28335); test: Radioligand displacement, 5-HT2c; assay type: binding
T2 sequence (P28335 33-458): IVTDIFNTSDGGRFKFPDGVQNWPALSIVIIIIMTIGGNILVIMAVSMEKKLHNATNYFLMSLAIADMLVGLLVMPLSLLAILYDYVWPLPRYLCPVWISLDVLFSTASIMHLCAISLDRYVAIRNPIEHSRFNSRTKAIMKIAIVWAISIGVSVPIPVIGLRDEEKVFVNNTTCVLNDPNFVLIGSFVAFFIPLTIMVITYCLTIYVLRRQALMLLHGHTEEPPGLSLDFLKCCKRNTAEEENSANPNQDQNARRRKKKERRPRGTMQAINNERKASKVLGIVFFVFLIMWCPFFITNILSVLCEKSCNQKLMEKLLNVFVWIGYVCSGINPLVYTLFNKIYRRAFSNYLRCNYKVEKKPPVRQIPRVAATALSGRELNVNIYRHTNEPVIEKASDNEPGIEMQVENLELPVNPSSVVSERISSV

5-HT7 = 5-HT7 (Homo sapiens, UniProt P34969); test: Radioligand displacement, 5-HT7; assay type: binding
Chain of 5-HT7 (P34969 whole entry): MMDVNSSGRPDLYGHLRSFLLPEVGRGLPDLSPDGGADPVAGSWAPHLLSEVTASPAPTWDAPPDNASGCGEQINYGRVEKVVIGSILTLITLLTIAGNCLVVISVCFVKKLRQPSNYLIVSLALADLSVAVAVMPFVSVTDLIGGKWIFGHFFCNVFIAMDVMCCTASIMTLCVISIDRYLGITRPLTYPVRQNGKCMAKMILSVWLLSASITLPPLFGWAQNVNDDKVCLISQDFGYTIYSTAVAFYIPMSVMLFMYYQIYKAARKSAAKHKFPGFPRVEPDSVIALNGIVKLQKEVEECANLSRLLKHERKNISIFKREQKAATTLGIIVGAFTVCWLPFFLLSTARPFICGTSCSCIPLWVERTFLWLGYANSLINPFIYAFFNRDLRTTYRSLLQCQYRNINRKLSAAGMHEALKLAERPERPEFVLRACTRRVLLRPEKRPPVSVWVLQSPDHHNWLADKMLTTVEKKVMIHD

[4] = cited from earlier work
H2 = H2 (Homo sapiens, UniProt P25021); test: Radioligand displacement, H2
Chain of H2 (P25021 whole entry): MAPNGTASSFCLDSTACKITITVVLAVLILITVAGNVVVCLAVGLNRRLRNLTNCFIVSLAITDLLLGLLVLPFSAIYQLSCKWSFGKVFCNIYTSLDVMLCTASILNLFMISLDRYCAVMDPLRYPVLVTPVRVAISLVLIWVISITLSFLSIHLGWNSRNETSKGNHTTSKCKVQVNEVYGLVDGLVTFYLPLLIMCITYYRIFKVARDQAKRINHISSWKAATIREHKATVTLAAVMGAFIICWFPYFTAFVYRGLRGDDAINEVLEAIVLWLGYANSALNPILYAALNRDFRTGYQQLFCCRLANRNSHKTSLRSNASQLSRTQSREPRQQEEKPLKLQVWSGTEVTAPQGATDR

[5] = molecular target: NMDA receptors, phencyclidine (cation channel) site; test: Radioligand displacement, NMDA; assay type: binding, Rat; details: for Ki: [3H] radioligand MK801, Rat, Brain
D3 = D3 (Homo sapiens, UniProt P35462); test: Radioligand displacement, D3; assay type: binding
Chain of D3 (P35462 whole entry): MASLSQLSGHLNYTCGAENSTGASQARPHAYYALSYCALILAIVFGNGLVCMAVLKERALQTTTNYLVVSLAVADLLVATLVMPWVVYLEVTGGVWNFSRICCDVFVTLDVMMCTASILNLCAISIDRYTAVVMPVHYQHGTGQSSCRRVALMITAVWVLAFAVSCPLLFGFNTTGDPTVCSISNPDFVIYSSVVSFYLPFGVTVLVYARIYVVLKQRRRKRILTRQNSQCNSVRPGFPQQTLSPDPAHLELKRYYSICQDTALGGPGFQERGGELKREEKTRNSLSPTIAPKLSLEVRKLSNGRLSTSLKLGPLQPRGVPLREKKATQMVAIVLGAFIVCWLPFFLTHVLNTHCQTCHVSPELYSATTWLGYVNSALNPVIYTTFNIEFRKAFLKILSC

M5 = M5 (Homo sapiens, UniProt P08912); test: Radioligand displacement, M5; assay type: binding
Chain of M5 (P08912 whole entry): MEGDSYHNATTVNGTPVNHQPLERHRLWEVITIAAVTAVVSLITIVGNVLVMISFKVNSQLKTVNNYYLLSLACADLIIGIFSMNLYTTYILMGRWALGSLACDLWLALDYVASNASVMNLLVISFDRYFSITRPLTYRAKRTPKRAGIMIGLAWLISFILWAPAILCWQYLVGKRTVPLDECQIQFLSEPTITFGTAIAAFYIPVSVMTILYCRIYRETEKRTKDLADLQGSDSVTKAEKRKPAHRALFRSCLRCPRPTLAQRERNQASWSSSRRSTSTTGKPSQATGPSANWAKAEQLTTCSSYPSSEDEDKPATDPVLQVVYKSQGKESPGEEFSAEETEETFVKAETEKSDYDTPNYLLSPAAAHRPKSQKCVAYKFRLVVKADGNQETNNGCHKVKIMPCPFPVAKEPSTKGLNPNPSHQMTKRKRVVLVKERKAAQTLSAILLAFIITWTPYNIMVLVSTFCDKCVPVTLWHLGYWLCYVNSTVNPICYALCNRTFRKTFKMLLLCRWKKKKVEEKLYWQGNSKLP

[6] = molecular target: N-methyl-D-aspartate (NMDA) receptor; set-up: method as in PMID 7681005; details: [3H]CGP-39,653, glutamate site; cited from earlier work
α2A = molecular target: T3, α2A (Homo sapiens, UniProt P08913); test: Radioligand displacement, α2A
T3 sequence (P08913 1-465): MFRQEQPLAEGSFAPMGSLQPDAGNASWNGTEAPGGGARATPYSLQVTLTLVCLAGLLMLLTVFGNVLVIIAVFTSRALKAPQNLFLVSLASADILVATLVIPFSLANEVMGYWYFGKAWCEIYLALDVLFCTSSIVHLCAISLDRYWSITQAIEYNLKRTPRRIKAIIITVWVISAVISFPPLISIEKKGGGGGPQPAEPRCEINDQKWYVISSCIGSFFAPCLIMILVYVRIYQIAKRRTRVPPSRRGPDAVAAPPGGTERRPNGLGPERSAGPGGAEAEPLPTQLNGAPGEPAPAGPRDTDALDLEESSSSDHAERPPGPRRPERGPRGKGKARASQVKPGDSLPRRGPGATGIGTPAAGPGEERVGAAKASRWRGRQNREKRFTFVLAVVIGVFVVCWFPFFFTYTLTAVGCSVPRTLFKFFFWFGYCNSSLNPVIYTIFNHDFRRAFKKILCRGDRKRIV

μ opioid receptor = molecular target: T4, μ opioid receptor (Homo sapiens, UniProt P35372); test: Radioligand displacement, μ; assay type: binding
T4 construct: expressed in transfected cells
T4 sequence (P35372 whole entry): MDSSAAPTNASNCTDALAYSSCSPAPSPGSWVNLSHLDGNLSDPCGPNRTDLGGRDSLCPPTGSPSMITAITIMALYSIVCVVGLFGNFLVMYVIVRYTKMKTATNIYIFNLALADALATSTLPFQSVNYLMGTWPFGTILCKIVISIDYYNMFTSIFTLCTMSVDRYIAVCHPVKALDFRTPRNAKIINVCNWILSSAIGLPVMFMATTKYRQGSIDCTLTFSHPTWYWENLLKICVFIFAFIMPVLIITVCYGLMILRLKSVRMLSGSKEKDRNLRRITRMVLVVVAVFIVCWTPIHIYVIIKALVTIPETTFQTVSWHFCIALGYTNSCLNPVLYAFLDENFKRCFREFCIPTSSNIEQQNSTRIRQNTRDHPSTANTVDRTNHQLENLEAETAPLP

M1-R = M1-R (Homo sapiens, UniProt P11229)
Chain of M1-R (P11229 whole entry): as the sequence (P11229 whole entry) above

[7] = [3H] radioligand LSD, Human, Cloned, read-out: Ki
[8] = [3H] radioligand N-Methylspiperone, Human, Cloned, read-out: Ki
[9] = [3H] radioligand QNB, Human, Cloned, read-out: Ki

Chain of 5-HT6 (P50406 whole entry): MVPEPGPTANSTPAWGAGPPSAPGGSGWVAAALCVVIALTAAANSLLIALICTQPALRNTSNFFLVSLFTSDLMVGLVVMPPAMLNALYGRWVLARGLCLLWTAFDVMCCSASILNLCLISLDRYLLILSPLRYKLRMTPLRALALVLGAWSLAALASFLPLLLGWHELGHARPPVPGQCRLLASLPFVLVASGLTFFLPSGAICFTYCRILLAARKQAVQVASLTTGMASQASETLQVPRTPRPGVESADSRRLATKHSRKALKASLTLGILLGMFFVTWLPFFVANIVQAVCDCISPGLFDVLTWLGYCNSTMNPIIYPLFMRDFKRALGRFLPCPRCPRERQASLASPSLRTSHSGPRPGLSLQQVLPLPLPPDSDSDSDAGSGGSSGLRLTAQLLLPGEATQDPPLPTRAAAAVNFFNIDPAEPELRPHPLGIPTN

SMILES: Oc1ccc2c3c1O[C@H]1c4[nH]c5c(c4C[C@@]4(O)[C@@H](C2)N(CC2CC2)CC[C@]314)C[C@@]1(O)[C@H]2Cc3ccc(O)c4c3[C@@]1(CCN2CC1CC1)[C@H]5O4 [nor-BNI, Nor-binaltorphimine]
- Ki (5-HT6): ≥ 10 µM
- Ki (D4): ≥ 10 µM
- Ki (M3): ≥ 10 µM
- Ki (5-HT5a): ≥ 10 µM
- binding to glucocorticoid receptor NR3C1 [1]: No binding was detected
- substrate of human P-gp [2]: not substrates
- Ki (5-HT2a): ≥ 10 µM
- Ki [3]: ≥ 10 µM
- Ki (H4): ≥ 10 µM
- Ki (5-HT2c): ≥ 10 µM
- Ki (5-HT7): ≥ 10 µM
- peak unbound concentration in plasma ([4]; dose 10 mg/kg): 3 µM
- decline of plasma concentration ([4]; within 4 hours): over 80%
- decline of plasma concentration ([4]; within 24 hours): over 98%
- Ki (H2): ≥ 10 µM
- Ki [5]: ≥ 10 µM
- displacement of [3H]MK-801 from the phencyclidine (cation channel) site ([5]; at 10 µM): did not displace
- Ki (D3): ≥ 10 µM
- Ki (M5): ≥ 10 µM
- Ki [6]: > 1 µM
- Ki (α2A; K i, α2A, radioligand displacement (Table 1)): 4.9 µM

SMILES: N=C(N)Nc1ccc2[nH]c3c(c2c1)C[C@@]1(O)[C@H]2Cc4ccc(O)c5c4[C@@]1(CCN2CC1CC1)[C@H]3O5 [GNTI, 5′-guanidinonaltrindole]
- Ki (5-HT6): ≥ 10 µM
- Ki (D4): ≥ 10 µM
- Ki (M3): ≥ 10 µM
- Ki (5-HT5a): ≥ 10 µM
- substrate of human P-gp [2]: not substrates
- Ki (5-HT2a): ≥ 10 µM
- Ki [3]: ≥ 10 µM
- displacement from M1-R ([3]; at 10 µM, [3H]3-quinuclidinyl benzilate (QNB)): 49%
- Ki (H4): ≥ 10 µM
- Ki (5-HT2c): ≥ 10 µM
- Ki (5-HT7): ≥ 10 µM
- estimate of the unbound brain concentration ([4]; after 39 mg/kg): 5 nM
- peak unbound concentration in plasma ([4]; dose 10 mg/kg): 2 µM
- peak unbound concentration in plasma ([4]; dose 39 mg/kg): 8 µM
- decline of plasma concentration ([4]; within 4 hours): over 80%
- decline of plasma concentration ([4]; within 24 hours): over 98%
- Ki (μ opioid receptor): 0.054 µM
- Ki (H2): ≥ 10 µM
- K B (M1-R; antagonism of acetylcholine, calcium mobilization, 95% CI = 3.2 to 4.3 µM): 3.7 µM
- activation of M1-R (M1-R; calcium mobilization): did not activate M1-R
- selectivity for κ-OR over M1-R (M1-R; functional potency at κ-OR (ref 3) versus K B at M1-R): > 3,000 fold
- Ki [5]: ≥ 10 µM
- Ki (D3): ≥ 10 µM
- Ki (M5): ≥ 10 µM
- Ki (α2A; Ki, [3H] radioligand Rauwolscine, Human, Cloned): ≥ 10 µM

SMILES: CC(C)[C@@H](CN1CC[C@@](C)(c2cccc(O)c2)[C@@H](C)C1)NC(=O)[C@H]1Cc2ccc(O)cc2CN1 [JDTic]
- Ki (5-HT6; [7]): ≥ 10 µM
- Ki (D4; [8]): ≥ 10 µM
- Ki (M3; [9]): ≥ 10 µM
- Ki (5-HT5a; [7]): ≥ 10 µM
- Ki (5-HT2a; [3H] radioligand Ketanserin, Human, Cloned, read-out: Ki): ≥ 10 µM
- Ki [3, 9]: ≥ 10 µM
- Ki (H4; [3H] radioligand Histamine, Human, Cloned, read-out: Ki): ≥ 10 µM
- Ki (5-HT2c; [3H] radioligand Mesulergine, Human, Cloned, read-out: Ki): ≥ 10 µM
- Ki (5-HT7; [7]): ≥ 10 µM
- peak unbound concentration in plasma ([4]; dose 10 mg/kg): 0.1 µM
- decline of plasma concentration ([4]; within 4 hours): over 80%
- decline of plasma concentration ([4]; within 24 hours): over 98%
- Ki (H2; K i, H2, radioligand displacement (Table 1)): 1.8 µM
- Ki (H2; Ki, [3H] radioligand Tiotidine, Human, Cloned): 1.79 µM
- Ki (H2; Ki, binding curve File S1, H2 Receptor, [3H]Tiotidine (3 nM), Histamine Binding Buffer): 1.79 µM
- Ki [5]: ≥ 10 µM
- Ki (D3; [8]): ≥ 10 µM
- Ki (M5; [9]): ≥ 10 µM
- Ki (α2A): ≥ 10 µM
